Experimental findings from US8383672B2, “Halogenated rhodamine derivatives and applications thereof” (Kiadis Pharma Canada Inc., priority 2001, dated 2013) are described below.

Test [1] concerns Cytomegalovirus. As to the kind of experiment: Antiviral assay against Cytomegalovirus in FS cells, with PDT treatment. Type of test: cell-based, CMV (AD169). To be noted: 50 uM, followed by PDT treatment (180 minutes, 30 Joules/cm^2). The procedure:
The antiviral assay was performed as described in Lin, L (2001). Human diploid fibroblast, foreskin cells (FS), were used in this assay. […].
(§1) FS cells were grown to confluency in shell vials. At the time of infection 2.5-3.5×10^5 cells were growing on each coverslip. The CMV (AD169) stock solution containing 1 mL of virus were quickly thawed, seeded and diluted following 100 fold dilutions in MEM (Earle's salt) supplemented with L-glutamine and 2% FBS, total volume 30 ml.
(§2) The titer of the virus have been determined at 10^−2 (10^4 TCID50) plaque forming units (pfu) in 0.2 ml. Therefore 1 mL used in the PDT experiments represents […]. A M. O. I. of 0.4-0.5 of CMV was used throughout this experiment.
(§3) The plates containing no rhodamines derivatives were treated with light in parallel to the non-light treated plates. The concentration used throughout the assay for the rhodamines derivatives was maintained at 50 uM. Following the addition of the derivatives to the viral stock solution, the plates were placed into the Theralux L6.30 device and illuminated for 180 minutes with 210 rpm agitation. The energy output was measured to be 30 Joules/cm^2. The non-PDT plate was placed into a 37° C. incubator for the same amount of time. Following this treatment time, dilutions were made and inoculated with the FS cells under centrifugation (2000 g, 60 minutes). Following the centrifugation, the cells are incubated 60 minutes at 37° C., 5% CO2, then are washed with the culture media and incubated for 18-24 hours at 37° C. at 5% CO2. Inoculation volume of each dilution was 0.2 ml, the dilutions made were 10^−3 to 10^−5 in duplicate.
The cells were fixed, removed from the vials and stained with labelled FITC (fluorescein isothiocyanate) Mab to CMV immediate early antigen.
CMV viral particles were counted. One fluorescent virus particle (kidney-shaped) represents one plaque forming unit.

In the next test the test system is S. epidermitis. The test is described as follows: Bacteriostatic activity of rhodamine derivatives against Staphilococcus epidermitis (photodynamic treatment, CFU/mL). To be noted: for decrease of bacterial growth (bacteriostatic effect): without extrusion time. Type of test: cell-based. The procedure: Staphilococcus epidermitis
(§4) The protocol used for the bacteriosidic inactivation was performed as described in Brasseur and coll. with few modifications for bacteriosidic potential assessment (Brasseur et al, 2000).
Bacterial was grown overnight in Lubria Broth medium (LB), 100 μl (≈1×10^7 bacteria) of each bacterial suspension was added to 4 ml of LB medium, a small aliquot of the bacterial suspension was taken out for bacterial titer prior to treatment expressed as CFU/mL. […] Each mixture of bacteria rhodamine derivative was incubated at 37° C. for 40 minutes. The bacteria-rhodamine suspensions were then treated and exposed to a 514 nm wavelength light for 180 minutes, for a total output energy of 30 Joules/cm^2. Following the treatment time, the bacteria-rhodamine suspensions were centrifuged at 3000 g, resuspended in 4 ml and serial dilutions were performed for each duplicate. 10 μL of the diluted bacterial suspensions were plated, the plates incubated overnight at 37° C. The bacteriostatic effect is expressed by the number of CFU/mL.
The protocol used for the bacteriosidic inactivation was performed as described in Brasseur and coll. without modification for bacteriosidic potential assessment (Brasseur et al, 2000).
Bacterial was grown overnight in Lubria Broth medium (LB), 100 μl (≈1×10^7 bacteria) of each bacterial suspension added to 4 ml of LB medium. A small aliquot of the bacterial suspension was taken out for bacterial titer prior to treatment. […] Each mixture of bacteria rhodamine derivative was incubated at 37° C. for 40 minutes. The bacterial suspensions were then centrifuged at 3000 g for 10 minutes, resuspended in 4 mL LB media and incubated for 90 minutes at 37° C. to allow extrusion of the derivatives. The bacteria rhodamines suspensions were then treated and exposed to a 514 nm wavelength light for 180 minutes, for a total output energy of 30 Joules/cm^2. Following the treatment time, serial dilutions were performed for each duplicate and 10 μL of the diluted bacterial suspension was plated, the plates incubated overnight at 37° C. The bacteriostatic effect is expressed by the number of colony forming units/mL.

In a further test the test system is S. typhimurium. As to the kind of experiment: Bacteriostatic activity of rhodamine derivatives against S. typhimurium (photodynamic treatment, CFU/mL). Type of test: cell-based, Salmonella typhimurium. The settings on record: 50 μM; for antibacterial activity against S. typhimurium: 514 nm light 180 minutes, 30 Joules/cm^2; for log decrease of bacterial growth: S. typhimurium, without extrusion time. As for the experimental part: as §4
(§5) Bacterial was grown overnight in Lubria Broth medium (LB), 100 μl (≈×10^7 bacteria) of each bacterial suspension was added to 4 ml of LB medium, a small aliquot of the bacterial suspension was taken out for bacterial titer prior to treatment expressed as CFU/mL. To the bacterial suspension was added the rhodamines derivatives, each derivative being tested in duplicate at a concentration of 50 μM. Each mixture of bacteria rhodamine derivative was incubated at 37° C. for 40 minutes. The bacteria-rhodamine suspensions were then treated and exposed to a 514 nm wavelength light for 180 minutes, for a total output energy of 30 Joules/cm^2. Following the treatment time, the bacteria-rhodamine suspensions were centrifuged at 3000 g, resuspended in 4 ml and serial dilutions were performed for each duplicate. 10 μL of the diluted bacterial suspensions were plated, the plates incubated overnight at 37° C. The bacteriostatic effect is expressed by the number of CFU/mL.

Test [2] relates to Cytomegalovirus. As to the kind of experiment: Antiviral assay against Cytomegalovirus in FS cells, without PDT treatment. The settings on record: 50 uM. The format is cell-based, CMV (AD169). The procedure: The antiviral assay was performed as described in Lin, L (2001). Human diploid fibroblast, foreskin cells (FS), were used in this assay.
as §1, §2
as §3, with “solution,” for “solution, the plates were placed into the Theralux L6.30 device and illuminated for 180 minutes with 210 rpm agitation. The energy output was measured to be 30 Joules/cm^2. The non-PDT plate was placed into a 37° C. incubator for the same amount of time. Following this treatment time,”, “duplicate. […]” for “duplicate.”
CMV viral particles were counted. […]

In a further test the test system is E. coli. The test is described as follows: Bacteriostatic activity of rhodamine derivatives against E. coli (photodynamic treatment, CFU/mL). To be noted: for antibacterial activity against E. coli: 50 μM, 514 nm light 180 minutes, 30 Joules/cm^2; for log decrease of bacterial growth: E. coli, 50 uM, without extrusion time.
In a further test the test system is P. aeruginosa. As to the kind of experiment: Bacteriostatic activity of rhodamine derivatives against P. aeruginosa (photodynamic treatment, CFU/mL). The format is cell-based, Pseudomonas aeruginosa. The settings on record: 50 μM. The procedure:
as §4
as §5, with “(≈1×10^7” for “(≈×10^7”

[3] abbreviates: 50 μM, 514 nm light 180 minutes, 30 Joules/cm^2.

Entries after “also recorded” stand apart in the source; their conditions may differ.

Experimental for E. coli: Bacterial was grown overnight in Lubria Broth medium (LB), 100 μl (≈1×10^7 bacteria) of each bacterial suspension was added to 4 ml of LB medium, a small aliquot of the bacterial suspension was taken out for bacterial titer prior to treatment expressed as CFU/mL (colony forming units per mL). To the bacterial suspension was added the rhodamines derivatives, each derivative being tested in duplicate at a concentration of 50 μM. Each mixture of bacteria rhodamine derivative was incubated at 37° C. for 40 minutes. The bacteria-rhodamine suspensions were then treated and exposed to a 514 nm wavelength light for 180 minutes, for a total output energy of 30 Joules/cm^2. Following the treatment time, the bacteria-rhodamine suspensions were centrifuged at 3000 g, resuspended in 4 ml and serial dilutions were performed for each duplicate. 10 μL of the diluted bacterial suspensions were plated, the plates incubated overnight at 37° C. The bacteriostatic effect is expressed by the number of CFU/mL.

`CCN(CC)c1ccc2c(-c3ccccc3C(=O)OCCCBr)c3ccc(=[N+](CC)CC)cc-3oc2c1` [HA-VIII-92, rhodamine B 3-bromopropyl ester]: the “antiviral activity against Cytomegalovirus” value with Cytomegalovirus [1] was “possess antiviral activity”.

On to `COC(=O)c1cc(Cl)c(Cl)cc1-c1c2ccc(=[N+](C)C)cc-2oc2cc(N(C)C)ccc12.[Cl-]` [HA-X-40, 2′-(6-dimethylamino-3-dimethylimino-3H-xanthen-9-yl) 4′,5′-dichloro-benzoic acid methyl ester hydrochloride], for which, in the test with Cytomegalovirus [1], the “antiviral activity against Cytomegalovirus” value is “possess antiviral activity”. In addition, the “antibacterial activity (section Staphilococcus epidermitis)” value in the test on S. epidermitis (setting [3]) is given as “showed antibacterial activity”. Moreover, the “antibacterial activity against S. epidermitis” value in the test on S. epidermitis (50 μM, extrusion time of 90 minutes prior to radiation treatment) is recorded as “showed antibacterial activity”. The “effect on bacterial growth” value in the test on S. epidermitis (S. epidermitis, 50 μM, with 90 minutes extrusion time) is listed as “eradicates bacterial growth”. Besides, in the test on S. epidermitis (S. epidermitis, 50 μM), the “decrease of bacterial growth (bacteriostatic effect)” value (“decrease … (bacteriostatic effect)” below) was 2 logs.

Take `COCCOCCOC(=O)c1ccccc1-c1c2ccc(=N)c(Br)c-2oc2c(Br)c(N)ccc12` [HA-X-44, 4,5-dibromorhodamine 110 2-(2-methoxyethoxy)ethyl esther]: in the test with S. typhimurium, the “antibacterial activity against S. typhimurium” value is “showed antibacterial activity” and the “log decrease of bacterial growth” value is on record as 5 logs. The “antiviral activity against Cytomegalovirus (infectivity)” value in the test with Cytomegalovirus [2] was “inhibit cytometalovirus infectivity; also recorded: did not need PDT treatment to possess antiviral activity”. For the same compound, in the test with E. coli, the “antibacterial activity against E. coli” value is given as “showed antibacterial activity” and the “log decrease of bacterial growth” value is “eradication”. Also, the “antibacterial activity (section Staphilococcus epidermitis)” value with S. epidermitis (setting [3]) was “showed antibacterial activity”. In the test with S. epidermitis (S. epidermitis, 50 μM), the “decrease … (bacteriostatic effect)” value was “eradicates bacterial growth”.

On to `CCN=c1c(C)cc2c(-c3ccccc3C(=O)OCC)c3cc(C)c(NCC)c(Br)c3oc-2c1Br` [HA-X-171, 4,5-dibromorhodamine 6G], for which, in the test with E. coli, the “antibacterial activity against E. coli” value was “showed antibacterial activity” and the “log decrease of bacterial growth” value is on record as 3.7 logs. For the same compound, the “antiviral activity against Cytomegalovirus” value in the test on Cytomegalovirus [1] is recorded as “possess antiviral activity”. Moreover, the “antibacterial activity against S. epidermitis” value in the test with S. epidermitis (10 μM, 514 nm light 180 minutes, 30 Joules/cm^2) was “showed antibacterial activity”. Besides, the “decrease … (bacteriostatic effect)” value in the test on S. epidermitis (S. epidermitis, 10 μM) was 6,5 logs.

`COC(=O)c1ccccc1-c1c2ccc(=N)c(Br)c-2oc2c(Br)c(N)ccc12.Cl` [TH9402, 4,5-dibromorhodamine 123 (2-(4,5-dibromo-6-amino-3-imino-3H-xanthen-9-yl)-benzoic acid methyl ester hydrochloride), reference compound]: in the test on S. typhimurium, the “antibacterial activity against S. typhimurium” value is reported as “showed antibacterial activity” and the “log decrease of bacterial growth” value is on record as 6.7 logs. The “antiviral activity against Cytomegalovirus (infectivity)” value in the test on Cytomegalovirus [2] (hydrochloride) is given as “inhibit cytometalovirus infectivity; also recorded: did not need PDT treatment to possess antiviral activity”. In the test on E. coli, the “antibacterial activity against E. coli” value is listed as “showed antibacterial activity” and the “log decrease of bacterial growth” value was 7 logs. Also, the “antibacterial activity (section Staphilococcus epidermitis)” value with S. epidermitis (setting [3]) is given as “showed antibacterial activity”. For the same compound, the “decrease … (bacteriostatic effect)” value with S. epidermitis (S. epidermitis, 50 μM) is listed as “inhibits bacterial growth”. Moreover, the “antibacterial activity against P. aeruginosa” value in the test on P. aeruginosa (514 nm light 180 minutes, 30 Joules/cm^2) is recorded as “showed antibacterial activity”. The “log decrease of bacterial growth” value in the test with P. aeruginosa (P. aeruginosa, without extrusion time) is recorded as 2 logs.

For “acetate salt of 2,7-dibromorhodamine B hexyl ester [HA-X-149]”, the “antiviral activity against Cytomegalovirus” value in the test with Cytomegalovirus [1] is given as “possess antiviral activity”. The “antibacterial activity (section Staphilococcus epidermitis)” value with S. epidermitis (setting [3]) is “showed antibacterial activity”. The “decrease … (bacteriostatic effect)” value in the test with S. epidermitis (S. epidermitis, 50 μM) is given as 4,5 logs.

Consider “acetate salt of 2,7-dibromorhodamine B methyl ester [HA-X-164]”, for which, in the test on S. typhimurium, the “antibacterial activity against S. typhimurium” value is listed as “showed antibacterial activity” and the “log decrease of bacterial growth” value is listed as 0.3 logs. Besides, in the test with E. coli, the “antibacterial activity against E. coli” value is on record as “showed antibacterial activity” and the “log decrease of bacterial growth” value was determined as 0.25 logs. The “antiviral activity against Cytomegalovirus” value in the test with Cytomegalovirus [1] is given as “possess antiviral activity”. In the test with S. epidermitis (setting [3]), the “antibacterial activity (section Staphilococcus epidermitis)” value is “showed antibacterial activity”. In addition, the “decrease … (bacteriostatic effect)” value in the test with S. epidermitis (S. epidermitis, 50 μM) is 3 logs.
